The source of these data is US20210392895A1, “NOVEL OXADIAZOLES” (PI INDUSTRIES LIMITED, priority 2018, published 2021).

The subject of one test is Alternaria solani. Description: Alternaria solani (early blight of tomato/potato) in vitro test, radial growth on Potato Dextrose Agar. It is filed as cell-based. As to conditions: 168 h, compared to the untreated check, radial growth after seven days, read-out: control.
The test system of the next test is Phakopsora pachyrhizi. The test can be described thus: Phakopsora pachyrhizi test in soybean (greenhouse, preventive activity, disease severity rating). It is filed as in vivo. The settings on record: preventive spray on soybean, compared to the untreated check. In a few lines: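 Greenhouse-raised young soybean plants sprayed with compound at stated rates, then inoculated one day later with 2.1×10^6 P. pachyrhizi spores and held at 25° C, 90% RH. Disease severity (0-100%) rated visually 3, 7, 10 and 15 days after application; % control calculated versus untreated plants.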

The subject of the next test is Pyricularia oryzae. The test can be described thus: microbe, parasite or virus in culture. As to conditions: 168 h, read-out: control. Type of test: cell-based.
The test system of another test is Rhizoctonia solani. The test can be described thus: Rhizoctonia solani (rice sheath blight/potato black scurf) in vitro test, radial growth on Potato Dextrose Agar. It is filed as cell-based. The settings on record: 168 h, compared to the untreated check, radial growth after seven days, read-out: control.
In a further test the test system is Botrytis cinerea. Description: Botrytis cinerea (gray mold) in vitro test, radial growth on Potato Dextrose Agar. It is filed as cell-based. The settings on record: 168 h, compared to the untreated check, radial growth after seven days, read-out: control.
The next test has as its system Colletotrichum capsici. The test can be described thus: Colletotrichum capsici (anthracnose) in vitro test, radial growth on Potato Dextrose Agar. The settings on record: Colletotrichum truncatum, 168 h, read-out: control.

The structures appear in SMILES notation. Structures can show the parent of a compound that is named as a salt.

Method for Colletotrichum capsici: Compounds were dissolved in 0.3% DMSO and then added to Potato Dextrose Agar medium just prior to dispensing it into petri dishes. 5 mL medium with compound in the desired concentration was dispensed into 60 mm sterile petri-plates. After solidification, each plate was seeded with a 5 mm size mycelial disc taken form the periphery of an actively growing virulent culture plate. Plates were incubated in growth chambers at 25° C. temperature and 60% relative humidity for seven days and radial growth was measured.

For `COc1cccc(C(=O)N2CC[C@H](Oc3ccc(-c4noc(C(F)(F)F)n4)cc3)C2)c1` [Compound 1, (S)-(3-methoxyphenyl)(3-(4-(5-(trifluoromethyl)-1,2,4-oxadiazol-3-yl)phenoxy)pyrrolidin-1-yl)methanone], in the test on Alternaria solani, the inhibition of growth at 300 ppm was more than 70%. For the same molecule, in the test on Phakopsora pachyrhizi, the pest or weed control – broadly, the degree to which the test organism was suppressed or injured, in per cent – at 500 ppm is more than 70%.

With `COc1ccc(CC(=O)N2CC[C@H](Oc3ccc(-c4noc(C(F)(F)F)n4)cc3)C2)cc1OC` [Compound 5, (S)-2-(3,4-dimethoxyphenyl)-1-(3-(4-(5-(trifluoromethyl)-1,2,4-oxadiazol-3-yl)phenoxy)pyrrolidin-1-yl)ethan-1-one], the inhibition of growth at 300 ppm with Pyricularia oryzae is more than 70%. Further, the pest or weed control at 500 ppm in the test with Phakopsora pachyrhizi was more than 70%.

With `O=C(c1ccccc1F)N1CC[C@H](Oc2ccc(-c3noc(C(F)(F)F)n3)cc2)C1` [Compound 6, (S)-(2-fluorophenyl)(3-(4-(5-(trifluoromethyl)-1,2,4-oxadiazol-3-yl)phenoxy)pyrrolidin-1-yl)methanone], the inhibition of growth at 300 ppm in the test with Alternaria solani is more than 70%.

Take `O=C(Cc1ccccc1)N1CC[C@H](Oc2ccc(-c3noc(C(F)(F)F)n3)cc2)C1` [Compound 11, (S)-2-phenyl-1-(3-(4-(5-(trifluoromethyl)-1,2,4-oxadiazol-3-yl)phenoxy)pyrrolidin-1-yl)ethan-1-one]: the inhibition of growth at 300 ppm in the test on Pyricularia oryzae was more than 70%. The molecule further had a pest or weed control at 500 ppm with Phakopsora pachyrhizi of more than 70%.

`COc1cccc(C(=O)N2CC(Oc3ccc(-c4noc(C(F)(F)F)n4)cc3)C2)c1` [Compound 17, (3-methoxyphenyl)(3-(4-(5-(trifluoromethyl)-1,2,4-oxadiazol-3-yl)phenoxy)azetidin-1-yl)methanone]: the inhibition of growth at 300 ppm with Pyricularia oryzae is more than 70%. The molecule also had a pest or weed control at 500 ppm in the test with Phakopsora pachyrhizi of more than 70%.

Turning to `COc1cccc(CC(=O)N2CC[C@H](Oc3ccc(-c4noc(C(F)(F)F)n4)cc3)C2)c1` [Compound 24, (S)-2-(3-methoxyphenyl)-1-(3-(4-(5-(trifluoromethyl)-1,2,4-oxadiazol-3-yl)phenoxy)pyrrolidin-1-yl)ethan-1-one], the inhibition of growth at 300 ppm in the test on Alternaria solani is more than 70%. Moreover, the pest or weed control at 500 ppm in the test on Phakopsora pachyrhizi is more than 70%.

As to `O=C(c1ccccc1F)N1CC[C@H](Oc2ccc(-c3noc(C(F)(F)F)n3)cn2)C1` [Compound 45, (S)-(2-fluorophenyl)(3-((5-(5-(trifluoromethyl)-1,2,4-oxadiazol-3-yl)pyridin-2-yl)oxy)pyrrolidin-1-yl)methanone], the inhibition of growth at 300 ppm in the test on Pyricularia oryzae is more than 70%. Further, in the test on Phakopsora pachyrhizi, the pest or weed control at 500 ppm is more than 70%.

`O=C(c1cccnc1)N1CC[C@H](Oc2ccc(-c3noc(C(F)(F)F)n3)cn2)C1` [Compound 48, (S)-pyridin-3-yl(3-((5-(5-(trifluoromethyl)-1,2,4-oxadiazol-3-yl)pyridin-2-yl)oxy)pyrrolidin-1-yl)methanone]: the inhibition of growth at 300 ppm in the test with Pyricularia oryzae, in the test with Rhizoctonia solani, with Botrytis cinerea and in the test on Alternaria solani was more than 70% each time. The molecule further yielded a pest or weed control at 500 ppm with Phakopsora pachyrhizi of more than 70%.

On to `O=C(c1ccncc1)N1CC[C@H](Oc2ccc(-c3noc(C(F)(F)F)n3)cn2)C1` [Compound 49, (S)-pyridin-4-yl(3-((5-(5-(trifluoromethyl)-1,2,4-oxadiazol-3-yl)pyridin-2-yl)oxy)pyrrolidin-1-yl)methanone], for which the inhibition of growth at 300 ppm in the test on Pyricularia oryzae, with Rhizoctonia solani, in the test with Alternaria solani and with Colletotrichum capsici was more than 70% each time. This molecule also registered a pest or weed control at 500 ppm in the test with Phakopsora pachyrhizi of more than 70%.

In the case of `COc1ccc(C(=O)N2CC[C@H](Oc3ccc(-c4noc(C(F)(F)F)n4)cc3)C2)cn1` [Compound 56, (S)-(6-methoxypyridin-3-yl)(3-(4-(5-(trifluoromethyl)-1,2,4-oxadiazol-3-yl)phenoxy)pyrrolidin-1-yl)methanone], in the test on Pyricularia oryzae, the inhibition of growth at 300 ppm was more than 70%. In the test with Phakopsora pachyrhizi, the pest or weed control at 500 ppm is more than 70%.

`O=C(c1cccnc1)N1CC[C@H](Oc2ccc(-c3noc(C(F)(F)F)n3)cc2F)C1` [Compound 58, (S)-(3-(2-fluoro-4-(5-(trifluoromethyl)-1,2,4-oxadiazol-3-yl)phenoxy)pyrrolidin-1-yl)(pyridin-3-yl)methanone]: the inhibition of growth at 300 ppm in the test on Pyricularia oryzae and in the test on Alternaria solani was more than 70% in each case.

For `CC(C)(C)OC(=O)N1CC[C@H](Oc2ccc(-c3noc(C(F)(F)F)n3)cc2F)C1` [Compound 60, tert-butyl-(S)-3-(2-fluoro-4-(5-(trifluoromethyl)-1,2,4-oxadiazol-3-yl)phenoxy)pyrrolidine-1-carboxylate], in the test with Pyricularia oryzae, the inhibition of growth at 300 ppm is more than 70%. The molecule also had a pest or weed control at 500 ppm in the test on Phakopsora pachyrhizi of more than 70%.

Consider `CCS(=O)(=O)N1CC[C@H](Oc2ccc(-c3noc(C(F)(F)F)n3)cc2F)C1` [Compound 61, (S)-3-(4-((1-(ethylsulfonyl)pyrrolidin-3-yl)oxy)-3-fluorophenyl)-5-(trifluoromethyl)-1,2,4-oxadiazole], for which the inhibition of growth at 300 ppm in the test with Pyricularia oryzae was more than 70%. The pest or weed control at 500 ppm in the test with Phakopsora pachyrhizi is more than 70%.

For `FC(F)(F)c1nc(-c2ccc(N(c3ccc(-c4noc(C(F)(F)F)n4)cc3)C3CNC3)cc2)no1` [Compound 86, N,N-bis(4-(5-(trifluoromethyl)-1,2,4-oxadiazol-3-yl)phenyl)azetidin-3-amine Hydrochloride], the inhibition of growth at 300 ppm with Alternaria solani is more than 70%. The same molecule displayed a pest or weed control at 500 ppm with Phakopsora pachyrhizi of more than 70%.

In turn, `CN(c1ccc(-c2noc(C(F)(F)F)n2)cc1)C1CN(C(=O)c2ccccc2)C1` [Compound 87, (3-(methyl(4-(5-(trifluoromethyl)-1,2,4-oxadiazol-3-yl)phenyl)amino)azetidin-1-yl)(phenyl)methanone] yielded a pest or weed control at 500 ppm in the test on Phakopsora pachyrhizi of more than 70%. Further, the inhibition of growth at 300 ppm in the test with Colletotrichum capsici was more than 70%.

Take `CN(c1ccc(-c2noc(C(F)(F)F)n2)cc1)C1CN(C(=O)c2cccc(F)c2)C1` [Compound 96, (3-fluorophenyl)(3-(methyl(4-(5-(trifluoromethyl)-1,2,4-oxadiazol-3-yl)phenyl)amino)azetidin-1-yl)methanone]: the inhibition of growth at 300 ppm with Pyricularia oryzae, in the test on Alternaria solani and with Colletotrichum capsici was more than 70% each time.

`Cc1ccc(C(=O)N2CC(N(C)c3ccc(-c4noc(C(F)(F)F)n4)cc3)C2)cc1` [Compound 97, (3-(methyl(4-(5-(trifluoromethyl)-1,2,4-oxadiazol-3-yl)phenyl)amino)azetidin-1-yl)(p-tolyl)methanone]: the inhibition of growth at 300 ppm with Pyricularia oryzae and with Alternaria solani was more than 70% in each case.

As for `COc1ccc(C(=O)N2CC(N(C)c3ccc(-c4noc(C(F)(F)F)n4)cc3)C2)cc1` [Compound 98, (4-methoxyphenyl)(3-(methyl(4-(5-(trifluoromethyl)-1,2,4-oxadiazol-3-yl)phenyl)amino)azetidin-1-yl)methanone], the inhibition of growth at 300 ppm in the test with Pyricularia oryzae and in the test on Alternaria solani was more than 70% throughout.

Consider `CN(c1ccc(-c2noc(C(F)(F)F)n2)cc1)C1CN(C(=O)Cc2ccccc2)C1` [Compound 99, 1-(3-(methyl(4-(5-(trifluoromethyl)-1,2,4-oxadiazol-3-yl)phenyl)amino)azetidin-1-yl)-2-phenylethan-1-one], for which the inhibition of growth at 300 ppm with Pyricularia oryzae and in the test on Alternaria solani was more than 70% in each case.

With `O=C(c1ccccc1F)N1CCC(Oc2cccc(-c3noc(C(F)(F)F)n3)c2)C1` (stereo not shown) [Compound 132, (2-fluorophenyl)(3-(3-(5-(trifluoromethyl)-1,2,4-oxadiazol-3-yl)phenoxy)pyrrolidin-1-yl)methanone], in the test on Alternaria solani, the inhibition of growth at 300 ppm was more than 70%.

Regarding `O=C(c1cccc(F)c1)N1CCC(Oc2cccc(-c3noc(C(F)(F)F)n3)c2)C1` (stereo not shown) [Compound 133, (3-fluorophenyl)(3-(3-(5-(trifluoromethyl)-1,2,4-oxadiazol-3-yl)phenoxy)pyrrolidin-1-yl)methanone], the inhibition of growth at 300 ppm in the test with Pyricularia oryzae and in the test with Alternaria solani was more than 70% in each case.

As to `O=C(c1ccc(F)cc1)N1CCC(Oc2cccc(-c3noc(C(F)(F)F)n3)c2)C1` (stereo not shown) [Compound 134, (4-fluorophenyl)(3-(3-(5-(trifluoromethyl)-1,2,4-oxadiazol-3-yl)phenoxy)pyrrolidin-1-yl)methanone], the inhibition of growth at 300 ppm with Pyricularia oryzae and in the test on Alternaria solani was more than 70% in each case.

`CC(C)S(=O)(=O)N1CC[C@H](Oc2ccc(-c3noc(C(F)(F)F)n3)cc2)C1` [Compound 136, (S)-3-(4-((1-(isopropylsulfonyl)pyrrolidin-3-yl)oxy)phenyl)-5-(trifluoromethyl)-1,2,4-oxadiazole]: in the test with Colletotrichum capsici, the inhibition of growth at 300 ppm was more than 70%.

As for `O=C(c1ccncc1)N1CCC(Oc2ccc(-c3noc(C(F)(F)F)n3)cc2)CC1` [Compound 179, pyridin-4-yl(4-(4-(5-(trifluoromethyl)-1,2,4-oxadiazol-3-yl)phenoxy)piperidin-1-yl)methanone], the inhibition of growth at 300 ppm with Pyricularia oryzae is more than 70%.

For `COc1cccc(S(=O)(=O)N2CC(N(C)c3ccc(-c4noc(C(F)(F)F)n4)cc3)C2)c1` [Compound 198, 1-((3-methoxyphenyl)sulfonyl)-N-methyl-N-(4-(5-(trifluoromethyl)-1,2,4-oxadiazol-3-yl)phenyl)azetidin-3-amine], in the test with Pyricularia oryzae, the inhibition of growth at 300 ppm was more than 70%.

In the case of `O=C(c1cscn1)N1CC[C@H](Oc2ccc(-c3noc(C(F)(F)F)n3)cn2)C1` [Compound 200, (S)-thiazol-4-yl(3-((5-(5-(trifluoromethyl)-1,2,4-oxadiazol-3-yl)pyridin-2-yl)oxy)pyrrolidin-1-yl)methanone], the inhibition of growth at 300 ppm in the test with Pyricularia oryzae, in the test on Alternaria solani and in the test with Colletotrichum capsici was more than 70% in each case.
